Entries after “also recorded” stand apart in the source; their conditions may differ.
Columns and labels:
[1] = system: rat laser induced macular degeneration model (choroidal neovascularization); test: Example 1: rat laser-induced choroidal neovascularization, histopathology of CNV plaque thickness (first set of study); assay type: in vivo, Brown Norway rats (Rattus norvegicus)
Text: Fifty male Brown Norway (strain BN/RijHsd) rats (Rattus norvegicus), 4-7 weeks old (50-124 g each), were purchased from Harlan (Indianapolis, Ind.), received in good condition. The animals were quarantined and acclimated for three (3) days. […] 50 animals were arbitrarily assigned to study groups and given permanent identification numbers.
The retinae (both eyes of each rat) were lased using a retinal lasering device with an attached Kowa PortSlit, SC14; Keeler Fison Indirect Ophthalmoscope (Lens 30 Diopter). Rats were briefly anesthetized and the eyes were dilated and coverslips were used as necessary to flatten the cornea. Each retina was lased with 186 mW, 75 μm spot sizes, 0.1 sec duration, applied to (approximately) 9-, 12- and 3-o'clock positions, 2-3 disk diameters from the optic nerve of each eye as feasible as determined by the surgeon. Rupture of the Bruch's membrane was identified by bubble formation, which occurred immediately at the site of photocoagulation. Rats were briefly anesthetized and administered fluoroscein to visualize the retinal vasculature post surgically and prior to necropsy. Representative photographs of the retinas were taken using a Kowa retinal camera for rodents. The photographs were taken to assure that vascular lesions were present immediately following the laser procedure and immediately prior to necropsy.
2-[4-(7-ethyl-5H-pyrrolo[2,3-b]pyrazin-6-yl)-phenyl]-propan-2-ol A and 2-(3-fluoro-phenyl)-4-methyl-pyrimidine-5-carboxylic acid indol-1-ylamide were formulated in vehicle twice weekly during the study. Vehicle consisted of 0.5% methylcellulose, 0.2% Tween 20 in sterile water for injection, and was formulated once weekly. 2-(3-fluoro-phenyl)-4-methyl-pyrimidine-5-carboxylic acid indol-1-ylamide test article was reconstituted in vehicle at 0.6, 2, and 6 mg/mL; 2-(3-fluoro-phenyl)-4-methyl-pyrimidine-5-carboxylic acid indol-1-ylamide control article was reconstituted at 2 mg/mL. All solutions were stored refrigerated at 2-8° C. between dose administrations, and mixed prior to each dose administration.
Animals were dosed via twice daily oral gavage at 5 mL/kg, starting immediately prior to lasing and continuing for 14 days. Dose volumes were recalculated weekly based on the most recent body weight. Note that animals were lased on two sequential days, but were sacrificed together on a single day to facilitate handling during necropsy. Therefore, animals of the first cohort (Groups 1-3) received an extra (29th) dose on the morning of Day 14 to permit terminal bleed and sacrifice within 2-4 hr of final dose administration.
The fundus was photographed on Day 0, at the time of lasing or shortly thereafter, and on Day 13 or 14, prior to sacrifice. At each time point, retinal vasculature was illuminated by intravenous (IV) injection of each animal, several minutes before photography, with 0.1 mL of a 10% solution of fluorescein dye. Each eye was dilated with a mydriatic and photographed with Kowa Small Animal Fundus Camera. The purpose of the fundus photography was to confirm the presence lesions following lasing and prior to necropsy. Any animal found not to have lesions would be removed from study and replaced.
Following fundus photography and terminal bleeds, animals were sacrificed per SOPs. […]
The slides were evaluated visually, qualitatively and semi-quantitatively. The nuclei of new vessels growing on the retinal were counted. […]

[2] = system: rat laser-induced macular degeneration model (choroidal neovascularization); test: Example 3: DP antagonist, plaque volume of choroidal neovascularization in rat laser-induced macular degeneration model; assay type: in vivo, brown Norway rats (Rattus norvegicus); conditions: oral, twice each day on days -1 to 14; CNV volumes measured on day 14; FIG. 4
Text: FIG. 4 is a histogram of the results of an analysis of the effect of DP antagonist 2-(3-{6-[2-(2,4-dichloro-phenyl)-ethylamino]-2-methoxy-pyrimidin-4-yl}-phenyl)-2-methyl-propionic acid phosphoric acid salt (“Compound V” for purposes of this figure) on the plaque volume of choroidal neovascularization in the rat laser-induced macular degeneration model. Indomethacin was used as a positive control.
In this example, the effect of DP antagonist 2-(3-{6-[2-(2,4-dichloro-phenyl)-ethylamino]-2-methoxy-pyrimidin-4-yl}-phenyl)-2-methyl-propionic acid phosphoric acid salt (the compound) on plaque volume of choroidal neovascularization in the rat laser-induced macular degeneration model. As in the Examples discussed above, brown Norway rats (Rattus norvegicus) were used in this example. The rats received laser coagulation on day 0.[…] The compound was then administered orally twice each day on days −1 to 14. Indomethacin (positive control) was similarly administered twice daily. On day 14, the rats were sacrificed and choroidal neovascular (CNV) volumes were measured on day 14.

[3] = system: rat laser-induced macular degeneration model (choroidal neovascularization); test: Example 5: hPGDS inhibitor, CNV volume by flat-mount fluorescence 3D modeling in rat laser-induced macular degeneration model; assay type: in vivo, BN rats (Rattus norvegicus; strain Brown Norway); conditions: oral, twice (or once) each day on days -1 to 7; CNV volumes measured on day 7; FIGS. 6A, 6B, 6C
Method: FIG. 6A is a histogram of the results of the effect of the hPDGS inhibitor 2-Pyridin-2-yl-pyrimidine-5-carboxylic acid 3-[5-(1-hydroxy-1-methyl-ethyl)-1,2,4-oxadiazol-3-yl]-benzylamide (“Compound VII” for purposes of this figure) against a laser-induced choroidal neovascularization in the rat: 1st dose-response study. 2-Pyridin-2-yl-pyrimidine-5-carboxylic acid 3-[5-(1-hydroxy-1-methyl-ethyl)-1,2,4-oxadiazol-3-yl]-benzylamide was administered orally twice each day on days −1 to 7. Doxycycline was used as a positive control.
FIG. 6B is a histogram of the results of the effect of the hPDGS inhibitor 2-pyridin-2-yl-pyrimidine-5-carboxylic acid 3-[5-(1-hydroxy-1-methyl-ethyl)-1,2,4-oxadiazol-3-yl]-benzylamide (“Compound VII” for purposes of this figure) against a laser-induced choroidal neovascularization in the rat: 2nd dose-response study. 2-pyridine-2-yl-pyrimidine-5-carboxylic acid 3-[5-(1-hydroxy-1-methyl-ethyl)-1,2,4-oxadiazol-3-yl]-benzylamide was administered orally twice each day on days −1 to 7. CELEBREX was used as a positive control. […]
In this example, the effect of hPGDS antagonist 2-Pyridin-2-yl-pyrimidine-5-carboxylic acid 3-[5-(1-hydroxy-1-methyl-ethyl)-1,2,4-oxadiazol-3-yl]-benzylamide was evaluated using the rat laser-induced macular degeneration model. […] Choroidal neovascular (CNV) volumes were measured on day 7. […]

[4] = system: rat laser-induced macular degeneration model (choroidal neovascularization); test: Example 4: hPGDS inhibitor, plaque volume of choroidal neovascularization in rat laser-induced macular degeneration model; assay type: in vivo, brown Norway rats; conditions: oral, twice each day on days -1 to 14; measured after fourteen days; FIG. 5
Method: FIG. 5 is a histogram of the results of an analysis of the effect of the hPDGS inhibitor 4-Methyl-2-pyridin-2-yl-pyrimidine-5-carboxylic acid (5-fluoro-3-methyl-indol-1-yl)-amide (“Compound VI” for purposes of this figure) on the plaque volume of choroidal neovascularization in the rat laser-induced macular degeneration model. Indomethacin was used as a positive control.
In this example, the same experiment was performed with the rat laser-induced macular degeneration model to determine whether the hPDGS inhibitor 4-Methyl-2-pyridin-2-yl-pyrimidine-5-carboxylic acid (5-fluoro-3-methyl-indol-1-yl)-amide could limit the plaque volume of choroidal neovascularization
In particular, the hPDGS inhibitor 4-Methyl-2-pyridin-2-yl-pyrimidine-5-carboxylic acid (5-fluoro-3-methyl-indol-1-yl)-amide (the compound) was administered orally to the rats twice each day on days −1 to day 14. On day 0, a laser was used to induce choroidal neovascularization in the eye of the brown Norway rats. Indomethacin was administered to a control group similarly, i.e., twice each day from day −1 to day 14.
After fourteen days, the rats were sacrificed and the plaque volume of choroidal neovascularization in the eye was measured.

For `Cc1nc(-c2cccc(F)c2)ncc1C(=O)Nn1ccc2ccccc21` [2-(3-Fluoro-phenyl)-4-methyl-pyrimidine-5-carboxylic acid indol-1-ylamide], the “reduction of CNV plaque thickness” value ([1]; 10 mpk, PO) was 40.7%.

In the case of `COc1nc(NCCc2ccc(Cl)cc2Cl)cc(-c2cccc(C(C)(C)C(=O)O)c2)n1.O=P(O)(O)O` [2-(3-{6-[2-(2,4-Dichloro-phenyl)-ethylamino]-2-methoxy-pyrimidin-4-yl}-phenyl)-2-methyl-propionic Acid Phosphoric Acid Salt], the “limiting the volume of choroidal neovascularization” value [2] is reported as “very effective”.

In the case of `CC(C)(O)c1nc(-c2cccc(CNC(=O)c3cnc(-c4ccccn4)nc3)c2)no1` [2-Pyridin-2-yl-pyrimidine-5-carboxylic acid 3-[5-(1-hydroxy-1-methyl-ethyl)-1,2,4-oxadiazol-3-yl]-benzylamide], the “limiting CNV volume” value [3] is reported as “effective”.

With `CCc1c(-c2ccc(C(C)(C)O)cc2)[nH]c2nccnc12` [2-[4-(7-Ethyl-5H-pyrrolo[2,3-b]pyrazin-6-yl)-phenyl]-propan-2-ol] the “reduction of CNV plaque thickness” value ([1]; 3 mpk, PO) was 11.3%, the “reduction of CNV plaque thickness” value ([1]; 10 mpk, PO) was 36.6% and the “reduction of CNV plaque thickness” value ([1]; 30 mpk, PO) was 32.2%.

For `Cc1nc(-c2ccccn2)ncc1C(=O)Nn1cc(C)c2cc(F)ccc21` [4-Methyl-2-pyridin-2-yl-pyrimidine-5-carboxylic acid (5-fluoro-3-methyl-indol-1-yl)-amide], the “limiting the plaque volume of choroidal neovascularization” value [4] was “effective; also recorded: very effective”.

`CC1(C)O[C@@H]2C[C@H]3[C@@H]4CCC5=CC(=O)C=C[C@]5(C)[C@@]4(F)[C@@H](O)C[C@]3(C)[C@]2(C(=O)CO)O1` [Triamcinolone Acetonide, reference compound] was tested, and the “reduction of CNV plaque thickness” value ([1]; positive control, intravitreal injection) was 25.9%.

— patent publication US20110301125A1, “Method for Treating Macular Degeneration” (SANOFI-AVENTIS, priority 2008, published 2011)
